We go through 13 compounds from patent US20250186437A1, “CARBOLINE COMPOUNDS AND USE THEREOF” (PTC Therapeutics, Inc., priority 2021, published 2025).

The test system of assay [1] is MOLM-13 cells. Kind of assay: MOLM-13 Uridine Rescue Assay. The format is cell-based. The settings on record: Homo sapiens; MOLM-13 cell proliferation with 100 μM Uridine added, 72 Hours of culture. In outline: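 MOLM-13 cells (passage <20) in RPMI 1640 + 10% FBS at 10^4 cells/well, treated with compound in 0.5% final DMSO for 72 h at 37 °C, 5% CO2. Viability by CellTiter-Glo luminescence. Rescue plates additionally received 100 μM uridine.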

The subject of assay [2] is MOLM-13 cells. Nature of the assay: MOLM-13 Cell Proliferation Assay (indicator of DHODH inhibition). Format: cell-based. The settings on record: Homo sapiens, 72 Hours of culture, CellTiter-Glo, no uridine. In outline:
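Low-passage MOLM-13 cells (10^4/well) in RPMI 1640 + 10% FBS exposed to compound (0.5% DMSO final) for 72 h at 37 °C, 5% CO2. Viability read by CellTiter-Glo luminescence; growth reflects de novo pyrimidine synthesis dependent on DHODH.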

In the case of `FC(F)(F)c1nc(N2CCc3c([nH]c4ccc(Cl)cc34)C2c2cnc(N3CCOCC3)nc2)nc(C(F)(F)F)n1` (centres unmarked) [Compound 388, 2-[4,6-bis(trifluoromethyl)-1,3,5-triazin-2-yl]-6-chloro-1-[2-(morpholin-4-yl)pyrimidin-5-yl]-2,3,4,9-tetrahydro-1H-pyrido[3,4-b]indole], the IC50 turned out to be 6640 nM in assay [1] and 0.3 nM in assay [2].
For `N#Cc1cc(C#N)nc(N2CCc3c([nH]c4ccc(Cl)cc34)[C@@H]2c2cnc(N3CCOCC3)nc2)n1` [Compound 398, 2-{(1S)-6-chloro-1-[2-(morpholin-4-yl)pyrimidin-5-yl]-1,3,4,9-tetrahydro-2H-pyrido[3,4-b]indol-2-yl}pyrimidine-4,6-dicarbonitrile] the same measures were 720 nM and 10.6 nM.
On to `FC(F)(F)c1nc(N2CCc3c([nH]c4ccc(Cl)cc34)[C@@H]2c2ccc(N3CCOCC3)nc2)nc(C(F)(F)F)n1` [Compound 405, (1S)-2-[4,6-bis(trifluoromethyl)-1,3,5-triazin-2-yl]-6-chloro-1-[6-(morpholin-4-yl)pyridin-3-yl]-2,3,4,9-tetrahydro-1H-pyrido[3,4-b]indole], for which the IC50 worked out at 5880 nM in assay [1] and 0.2 nM in assay [2].
For `FC(F)(F)c1nc(N2CCc3c([nH]c4ccc(Cl)cc34)[C@@H]2c2cnc(N3CCOCC3)nc2)nc(C(F)(F)F)n1` [Compound 406, (1S)-2-[4,6-bis(trifluoromethyl)-1,3,5-triazin-2-yl]-6-chloro-1-[2-(morpholin-4-yl)pyrimidin-5-yl]-2,3,4,9-tetrahydro-1H-pyrido[3,4-b]indole] the same measures were 8350 nM and 0.3 nM.
For `Cc1ccc([C@H]2c3[nH]c4ccc(Cl)cc4c3CCN2c2nc(C(F)(F)F)cc(C(F)(F)F)n2)c(F)c1F` [Compound 407, (1S)-2-[4,6-bis(trifluoromethyl)pyrimidin-2-yl]-6-chloro-1-(2,3-difluoro-4-methylphenyl)-2,3,4,9-tetrahydro-1H-pyrido[3,4-b]indole] the same measures were 14700 nM and 0.3 nM.
The corresponding values for `FC(F)(F)c1ccnc(N2CCc3c([nH]c4ccc(Cl)cc34)[C@@H]2c2cnc(N3CCOCC3)nc2)n1` [Compound 408, (1S)-6-chloro-1-[2-(morpholin-4-yl)pyrimidin-5-yl]-2-[4-(trifluoromethyl)pyrimidin-2-yl]-2,3,4,9-tetrahydro-1H-pyrido[3,4-b]indole] are 11000 nM and 1.2 nM.
`FC(F)(F)c1cc(C(F)(F)F)nc(N2CCc3c([nH]c4ccc(Cl)cc34)[C@@H]2c2ccc(N3CCOCC3)nc2)n1` [Compound 409, (1S)-2-[4,6-bis(trifluoromethyl)pyrimidin-2-yl]-6-chloro-1-[6-(morpholin-4-yl)pyridin-3-yl]-2,3,4,9-tetrahydro-1H-pyrido[3,4-b]indole]: the figures for the IC50 in assay [1] and in assay [2] were 12600 nM and 0.2 nM, respectively.
The corresponding values for `FC(F)(F)c1cc(C(F)(F)F)nc(N2CCc3c([nH]c4ccc(Cl)cc34)[C@@H]2c2cnc(N3CCOCC3)nc2)n1` [Compound 410, (1S)-2-[4,6-bis(trifluoromethyl)pyrimidin-2-yl]-6-chloro-1-[2-(morpholin-4-yl)pyrimidin-5-yl]-2,3,4,9-tetrahydro-1H-pyrido[3,4-b]indole] are 14200 nM and 0.3 nM.
For `Cc1ccc([C@H]2c3[nH]c4ccc(Cl)cc4c3CCN2c2ncnc(C(F)(F)F)n2)cc1` [Compound 418, (1S)-6-chloro-1-(4-methylphenyl)-2-[4-(trifluoromethyl)-1,3,5-triazin-2-yl]-2,3,4,9-tetrahydro-1H-pyrido[3,4-b]indole] the same measures were 14900 nM and 2 nM.
For `CN1CCN(c2ncc([C@H]3c4[nH]c5ccc(Cl)cc5c4CCN3c3nc(C(F)(F)F)cc(C(F)(F)F)n3)cn2)CC1` [Compound 419, (1S)-2-[4,6-bis(trifluoromethyl)pyrimidin-2-yl]-6-chloro-1-[2-(4-methylpiperazin-1-yl)pyrimidin-5-yl]-2,3,4,9-tetrahydro-1H-pyrido[3,4-b]indole] the same measures were 5640 nM and 0.5 nM.
As for `CN1CCN(c2ncc([C@H]3c4[nH]c5ccc(Cl)cc5c4CCN3c3nc(C(F)(F)F)nc(C(F)(F)F)n3)cn2)CC1` [Compound 420, (1S)-2-[4,6-bis(trifluoromethyl)-1,3,5-triazin-2-yl]-6-chloro-1-[2-(4-methylpiperazin-1-yl)pyrimidin-5-yl]-2,3,4,9-tetrahydro-1H-pyrido[3,4-b]indole], the figures for the IC50 in assay [1] and in assay [2] were 3120 nM and 0.4 nM, respectively.
The corresponding values for `FC(F)(F)c1ncnc(N2CCc3c([nH]c4ccc(Cl)cc34)[C@@H]2c2cnc(N3CCOCC3)nc2)n1` [Compound 460, (1S)-6-chloro-1-[2-(morpholin-4-yl)pyrimidin-5-yl]-2-[4-(trifluoromethyl)-1,3,5-triazin-2-yl]-2,3,4,9-tetrahydro-1H-pyrido[3,4-b]indole] are 1160 nM and 1.3 nM.
For `FC(F)(F)c1ncnc(N2CCc3c([nH]c4ccc(Cl)cc34)[C@@H]2c2ccc(N3CCOCC3)nc2)n1` [Compound 462, (1S)-6-chloro-1-[6-(morpholin-4-yl)pyridin-3-yl]-2-[4-(trifluoromethyl)-1,3,5-triazin-2-yl]-2,3,4,9-tetrahydro-1H-pyrido[3,4-b]indole] the same measures were 13600 nM and 1.3 nM.
